Experimental data: US12624044B2, “SMARCA degraders and uses thereof” (Kymera Therapeutics, Inc., priority 2019, dated 2026)

Experiments:
SMARCA2 = SMARCA2 (Homo sapiens, UniProt P51531); test: SMARCA2 Western blot MV4-11 degradation; type: cell-based; details: 24 h; for Dmax: MV4-11, MV4-11 cells, read-out: SMARCA2 WB MV411 degradation 24 h: Average Dmax %; for DC50: MV4-11 cells, read-out: SMARCA2 WB MV411 degradation 24 h: Average external-Abs DC50
Summary of the method: (§1)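 MV4-11 cells treated with compound for 24 h, lysed in RIPA with protease/phosphatase inhibitors, and SMARCA2 and SMARCA4 (BRG1) levels assessed by Western blot with β-actin loading control and LI-COR fluorescent read-out. Maximal degradation (Dmax %) after 24 h binned into letter codes.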

SMARCA4 = target: T1, SMARCA4 (Homo sapiens, UniProt P51532); test: SMARCA4 Western blot MV4-11 degradation; type: cell-based; details: 24 h; for Dmax: MV4-11, MV4-11 cells, read-out: SMARCA4 WB MV411 degradation 24 h: Average Dmax %; for DC50: MV4-11 cells, read-out: SMARCA4 WB MV411 degradation 24 h: Average external-Abs DC50
T1 construct: SMARCA2 and SMARCA4 protein degradation in MV4-11 cells; endogenous in cells; host or cells: MV4-11
T1 sequence (P51532 whole entry): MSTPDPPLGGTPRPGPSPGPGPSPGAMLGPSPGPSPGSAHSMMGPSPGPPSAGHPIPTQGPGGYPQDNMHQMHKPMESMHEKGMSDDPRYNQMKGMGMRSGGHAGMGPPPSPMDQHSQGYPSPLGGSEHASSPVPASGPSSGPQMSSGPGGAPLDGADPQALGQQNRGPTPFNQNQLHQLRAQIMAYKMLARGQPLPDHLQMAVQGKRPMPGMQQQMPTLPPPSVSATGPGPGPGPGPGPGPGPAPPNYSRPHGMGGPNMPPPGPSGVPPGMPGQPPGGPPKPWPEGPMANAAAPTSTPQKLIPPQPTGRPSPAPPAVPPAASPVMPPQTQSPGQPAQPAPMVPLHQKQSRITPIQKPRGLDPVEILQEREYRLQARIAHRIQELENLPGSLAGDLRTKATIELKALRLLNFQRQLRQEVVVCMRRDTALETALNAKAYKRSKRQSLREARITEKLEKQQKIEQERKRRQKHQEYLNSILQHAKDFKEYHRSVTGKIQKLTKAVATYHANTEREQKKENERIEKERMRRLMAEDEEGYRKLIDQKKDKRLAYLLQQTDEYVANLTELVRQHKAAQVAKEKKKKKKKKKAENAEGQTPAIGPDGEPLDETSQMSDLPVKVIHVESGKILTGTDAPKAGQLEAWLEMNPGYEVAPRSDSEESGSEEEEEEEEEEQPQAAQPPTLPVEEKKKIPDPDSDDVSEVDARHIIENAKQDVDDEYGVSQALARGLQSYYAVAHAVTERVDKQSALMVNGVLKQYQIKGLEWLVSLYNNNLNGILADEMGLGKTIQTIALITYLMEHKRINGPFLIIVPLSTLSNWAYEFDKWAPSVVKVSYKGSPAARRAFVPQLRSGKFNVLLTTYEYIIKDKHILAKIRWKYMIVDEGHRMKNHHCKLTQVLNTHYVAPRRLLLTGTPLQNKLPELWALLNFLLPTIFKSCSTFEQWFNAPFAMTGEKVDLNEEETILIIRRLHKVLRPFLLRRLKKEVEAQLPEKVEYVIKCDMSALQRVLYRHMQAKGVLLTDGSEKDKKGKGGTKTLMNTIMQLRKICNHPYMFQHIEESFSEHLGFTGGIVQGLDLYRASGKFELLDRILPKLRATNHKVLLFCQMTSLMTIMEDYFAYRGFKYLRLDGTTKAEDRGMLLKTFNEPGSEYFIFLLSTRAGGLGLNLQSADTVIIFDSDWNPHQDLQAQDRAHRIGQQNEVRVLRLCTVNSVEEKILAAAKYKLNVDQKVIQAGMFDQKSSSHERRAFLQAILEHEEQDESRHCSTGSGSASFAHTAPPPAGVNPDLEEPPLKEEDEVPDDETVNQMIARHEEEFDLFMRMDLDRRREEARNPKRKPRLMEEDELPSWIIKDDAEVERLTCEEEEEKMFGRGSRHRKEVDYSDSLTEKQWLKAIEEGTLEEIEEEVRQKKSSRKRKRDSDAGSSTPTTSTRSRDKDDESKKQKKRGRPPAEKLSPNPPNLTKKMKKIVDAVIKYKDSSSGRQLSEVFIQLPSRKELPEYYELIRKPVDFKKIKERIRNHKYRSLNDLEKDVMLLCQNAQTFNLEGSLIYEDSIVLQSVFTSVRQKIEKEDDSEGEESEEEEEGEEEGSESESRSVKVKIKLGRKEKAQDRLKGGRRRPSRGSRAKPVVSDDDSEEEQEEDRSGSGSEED
Summary of the method: as §1

SMARCA2, sequence (P51531 whole entry): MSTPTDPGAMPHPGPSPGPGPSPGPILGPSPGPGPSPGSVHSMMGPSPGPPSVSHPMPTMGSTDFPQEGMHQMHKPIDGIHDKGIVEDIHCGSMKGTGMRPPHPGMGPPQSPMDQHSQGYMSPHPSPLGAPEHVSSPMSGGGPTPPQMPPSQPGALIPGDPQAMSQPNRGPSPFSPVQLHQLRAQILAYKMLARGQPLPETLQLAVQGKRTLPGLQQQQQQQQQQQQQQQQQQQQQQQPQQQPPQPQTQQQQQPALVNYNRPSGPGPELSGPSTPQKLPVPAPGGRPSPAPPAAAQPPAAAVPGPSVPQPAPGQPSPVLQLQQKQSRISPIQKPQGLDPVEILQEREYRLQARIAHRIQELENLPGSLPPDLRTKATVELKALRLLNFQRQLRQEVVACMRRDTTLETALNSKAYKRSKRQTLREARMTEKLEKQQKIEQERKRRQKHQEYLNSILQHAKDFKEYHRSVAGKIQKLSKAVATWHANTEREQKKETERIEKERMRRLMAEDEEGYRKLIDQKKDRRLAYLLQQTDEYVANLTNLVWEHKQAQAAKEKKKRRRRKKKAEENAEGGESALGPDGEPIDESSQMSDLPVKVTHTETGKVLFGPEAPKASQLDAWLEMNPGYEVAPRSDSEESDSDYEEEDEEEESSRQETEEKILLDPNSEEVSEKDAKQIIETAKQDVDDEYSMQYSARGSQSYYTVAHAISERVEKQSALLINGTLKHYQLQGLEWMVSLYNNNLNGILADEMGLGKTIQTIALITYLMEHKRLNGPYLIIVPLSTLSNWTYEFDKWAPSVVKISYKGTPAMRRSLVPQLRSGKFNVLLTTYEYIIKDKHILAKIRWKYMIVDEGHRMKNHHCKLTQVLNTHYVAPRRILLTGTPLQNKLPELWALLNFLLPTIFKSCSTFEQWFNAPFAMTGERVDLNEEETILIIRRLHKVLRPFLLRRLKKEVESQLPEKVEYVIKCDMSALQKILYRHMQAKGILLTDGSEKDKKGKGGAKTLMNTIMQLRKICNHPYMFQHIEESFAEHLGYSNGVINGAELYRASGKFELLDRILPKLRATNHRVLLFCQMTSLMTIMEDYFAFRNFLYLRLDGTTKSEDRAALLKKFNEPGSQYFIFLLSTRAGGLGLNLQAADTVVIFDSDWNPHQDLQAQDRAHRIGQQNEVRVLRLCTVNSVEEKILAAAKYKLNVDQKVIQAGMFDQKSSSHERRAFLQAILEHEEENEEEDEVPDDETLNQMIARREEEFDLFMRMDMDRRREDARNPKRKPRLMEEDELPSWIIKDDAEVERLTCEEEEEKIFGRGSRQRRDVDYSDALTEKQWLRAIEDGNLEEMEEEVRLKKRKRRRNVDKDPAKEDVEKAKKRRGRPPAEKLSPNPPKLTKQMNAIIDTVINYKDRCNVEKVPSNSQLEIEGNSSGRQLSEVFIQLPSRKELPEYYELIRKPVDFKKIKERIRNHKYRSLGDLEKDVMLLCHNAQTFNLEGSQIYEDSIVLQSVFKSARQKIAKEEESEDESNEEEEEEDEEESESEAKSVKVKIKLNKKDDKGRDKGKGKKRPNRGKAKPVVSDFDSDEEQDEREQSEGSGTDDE

## Cn1c(=O)n(C2CCC(=O)NC2=O)c2ccc(CCCCCCCc3nccc(N4C5CCC4CN(c4cc(-c6ccccc6O)nnc4N)C5)n3)cc21 (stereo not drawn) [I-287, 3-(5-(7-(4-(3-(3-amino-6-(2-hydroxyphenyl)pyridazin-4-yl)-3,8-diazabicyclo[3.2.1]octan-8-yl)pyrimidin-2-yl)heptyl)-3-methyl-2-oxo-2,3-dihydro-1H-benzo[d]imidazol-1-yl)piperidine-2,6-dione]
SMARCA2
  Dmax: 70 to 90%
  DC50: < 100 nM
SMARCA4
  Dmax: 50 to 70%
  DC50: > 1000 nM

## Cc1ncsc1-c1ccc(CNC(=O)[C@@H]2C[C@@H](O)CN2C(=O)[C@@H](NC(=O)[C@H]2CC[C@@H](c3cnc(N4C5CCC4CN(c4cc(-c6ccccc6O)nnc4N)C5)nc3)CC2)C(C)(C)C)cc1 [I-336]
SMARCA2
  Dmax: > 90%
  DC50: < 100 nM
SMARCA4
  Dmax: > 90%
  DC50: < 100 nM

## Cc1ncsc1-c1ccc(CNC(=O)[C@@H]2C[C@@H](O)CN2C(=O)[C@@H](NC(=O)[C@H]2CC[C@H](c3cnc(N4C5CCC4CN(c4cc(-c6ccccc6O)nnc4N)C5)nc3)CC2)C(C)(C)C)cc1 [I-337, (2S,4R)-1-((2S)-2-((1r,4S)-4-(2-(3-(3-amino-6-(2-hydroxyphenyl)pyridazin-4-yl)-3,8-diazabicyclo[3.2.1]octan-8-yl)pyrimidin-5-yl)cyclohexanecarboxamido)-3,3-dimethylbutanoyl)-4-hydroxy-N-(4-(4-methylthiazol-5-yl)benzyl)pyrrolidine-2-carboxamide]
SMARCA2
  Dmax: > 90%
  DC50: < 100 nM
SMARCA4
  Dmax: > 90%
  DC50: < 100 nM

## Cc1ncsc1-c1ccc(CNC(=O)[C@@H]2C[C@@H](O)CN2C(=O)[C@@H](NC(=O)[C@H]2CC3(C2)C[C@H](N2CCC(n4cc(-c5cc(-c6ccccc6O)nnc5N)cn4)CC2)C3)C(C)(C)C)cc1 (stereo partly drawn) [I-389]
SMARCA2
  Dmax: 70 to 90%
  DC50: < 100 nM
SMARCA4
  Dmax: 70 to 90%
  DC50: < 100 nM

## Cc1ncsc1-c1ccc(CNC(=O)[C@@H]2C[C@@H](O)CN2C(=O)[C@@H](NC(=O)[C@H]2CC[C@@H](CN3CCC(n4cc(-c5cc(-c6ccccc6O)nnc5N)cn4)CC3)CC2)C(C)(C)C)cc1 [I-402]
SMARCA2
  Dmax: 70 to 90%
  DC50: < 100 nM
SMARCA4
  Dmax: < 50%
  DC50: > 1000 nM

## Cc1ncsc1-c1ccc(CNC(=O)[C@@H]2C[C@@H](O)CN2C(=O)[C@@H](NC(=O)[C@H]2CC[C@H](CN3CCC(n4cc(-c5cc(-c6ccccc6O)nnc5N)cn4)CC3)CC2)C(C)(C)C)cc1 [I-403]
SMARCA2
  Dmax: 70 to 90%
  DC50: < 100 nM
SMARCA4
  Dmax: < 50%
  DC50: 501 to 1000 nM
